{"source": "patent US12564596B2", "about": "“Agents and methods for modulating pathogen activity” (Griffith University, priority 2018, dated 2026)", "key": {"[1]": {"test_system": "N. gonorrhoeae adherence to primary human cervical epithelial (PEX) cells", "assay": "Fluorometric adherence assay, gonococci to PEX cells", "format": "cell-based, Neisseria gonorrhoeae", "description": "Briefly, six N. gonorrhoeae strains were used in the experiments. These included the laboratory strain, MS11; the low-passage isolates, 1291, UT38097, LT38885, PID-26, and SK92-679; all of which were transformed with the green fluorescent protein (GFP) expression plasmid, pCmGFP (GenBank accession number FJ172221) Srikhanta et al (2009, PLoS Pathog. 5(4):e1000400) and, thus, expressed GFP Edwards et al (2000, Infect Immun 68(9):5354-63). […] The ability of carbamazepine to block the adherence of N. gonorrhoeae to human, primary cervical epithelial (PEX) cells was evaluated using a fluorometric adherence assay. Assays were performed essentially as described by Jen et al (2013, supra). In this regard, PEX cells were seeded to a 96-well plate and allowed to grow to confluence. Gonococci were then used to challenge (1 h) PEX cells simultaneously with, or without, various concentrations of carbamazepine ([…], 10 nM, 1 μM, or 100 μM, as noted) or 1% DMSO (vehicle control). Uninfected PEX cells treated with 1% DMSO served as a control for background fluorescence. Fluorescence (485/528 nm) intensity, corresponding to bacterial adherence, was recorded using a Synergy HT Multi-mode Microplate Reader (BioTek Instruments, Winooski, VT USA). The assay was performed in triplicate on 3 separate occasions. A Student's t-test was used to determine the statistical significance of the calculated mean of bacterial adherence.\nThe ability of the compounds, or negative controls to block adherence of N. gonorrhoeae strain MS11gfp to PEX cells, CHO-CR3, or CHO-neo cells was evaluated using a fluorometric microtiter plate assay. Assays were performed essentially as described by Jen et al. (2013, Plos Pathog 9(5): e1003377). In this regard, GFP-expressing gonococci were used to challenge (1 h) PEX or CHO cells immediately following compound addition. Fluorescence (485/528 nm) intensity, corresponding to bacterial adherence, was recorded using a Synergy HT Multi-mode Microplate Reader (BioTek Instruments, Winooski, VT USA). Blank wells, devoid of PEX or CHO cells, also were inoculated with bacteria and served as a control for non-specific binding. The assay was performed in triplicate on 3 separate occasions. A Student's t-test was used to determine the statistical significance of the calculated mean of bacterial adherence."}, "[2]": {"test_system": "HIV strains NL4-3 and NLAD8 adherence to human PEX cells", "assay": "Fluorometric adherence assay, HIV to PEX cells", "format": "cell-based", "conditions": "for decrease of cell association to PEX cells: 100 μM; for reduction in cell adherence to PEX cells: lowest concentration, printed 'down to 100 μM'", "procedure": "The ability of carbamazepine to block adherence of HIV to human PEX cells was evaluated using a fluorometric adherence assay, essentially as described by Jen et al. (2013, supra). In this regard, PEX cells were seeded to a 96-well plate and allowed to grow to confluence. Fluorescently labelled HIV (10 ng of p24 HIV capsid protein equivalent of HIV in 100 μL of F12 culture media) were then used to challenge (2 h) PEX cells simultaneously with, or without, various concentrations of carbamazepine (as noted). Fluorescence (485/528 nm) intensity, corresponding to HIV cell adherence, was recorded using a Synergy HT Multi-mode Microplate Reader (BioTek Instruments, Winooski, VT USA). The assay was performed in triplicate on 3 separate occasions. A Kruskal-Wallis k-sample analysis of variance was used to determine the statistical significance of the calculated mean of viral-cell adherence."}, "[3]": {"test_system": "primary T-cell derived WITO HIV interaction with human rI-domain", "assay": "SPR 1:1 competition assay, WITO HIV binding to rI-domain", "conditions": "for % inhibition: 1:1 competition, 1 μM, 1 µM", "procedure": "For competition analysis SPR of the HIV interaction with human rI-domain, primary T-cell derived WITO HIV was immobilized on a Cl sensor chip surface. Human rI-domain, drug or drug and human rI-domain were flowed at 1 μM over the immobilized HIV and the response units of the interactions were recorded. Any drug that could not compete with the virus or pilin binding to the rI-domain was also discarded. Remaining drugs were evaluated for known safety in humans and known therapeutic concentrations to determine if the drug would be tested, and at what concentrations, in in vitro cell models. All SPR sensorgrams and results plots were analyzed with Biacore S200 Evaluation Software (GE Healthcare Life Sciences)."}, "[4]": {"test_system": "HIV strains NL4-3 and NLAD8 adherence to CHO-CR3 cells", "assay": "Fluorometric adherence assay, HIV to CHO cells", "format": "cell-based", "procedure": "To test the ability of HIV to bind to CHO cells in a CR3 dependent fashion, and to test the ability of carbamazepine to block adherence of HIV to CHO-CR3 or CHO-neo cells, a fluorometric adherence assay was used, essentially as described by Jen et al (2013, supra). In this regard, CHO-neo or CHO-CR3 cells were seeded to a 96-well plate and allowed to grow to confluence. Fluorescently labelled HIV (10 ng of p24 HIV capsid protein equivalent of HIV in 100 μL of F12 culture media) were then used to challenge (2 h) CHO cells simultaneously with, or without, various concentrations of carbamazepine (as noted). Fluorescence (485/528 nm) intensity, corresponding to HIV cell adherence, was recorded using a Synergy HT Multi-mode Microplate Reader (BioTek Instruments, Winooski, VT USA). […] A Kruskal-Wallis k-sample analysis of variance was used to determine the statistical significance of the calculated mean of viral-cell adherence.\nHaving established the CR3-dependent binding of HIV to CHO cells, the inventors next examined the ability of carbamazepine to block the interaction of HIV strains NL4-3 and NLAD8 with the CR3 I-domain using fluorometric adherence assays. CR3-expressing (CHO-CR3) and non-expressing (CHO-neo) CHO cells, were seeded to microtiter plates, and HIV adherence was quantitated fluorometrically, as described by Jen et al. (2013, supra). […]"}}, "data": [{"smiles": "NC(=O)N1c2ccccc2C=Cc2ccccc21", "note": "[carbamazepine, 5H-dibenzo[b,f]azepine-5-carboxamide]", "values": [{"measurement": "gonococcal adherence to PEX cells with increasing concentrations", "setting": "[1]; 1 h post-challenge", "value": "dose-dependent decrease"}, {"measurement": "inhibition at 1 µM", "setting": "[1]; Neisseria gonorrhoeae, 1 h, read-out: inhibition of adherence to PEX cells", "value": "> 95", "unit": "%"}, {"measurement": "decrease of cell association to PEX cells", "setting": "[2]; NL4-3, 2 h", "value": "88.53%±0.37"}, {"measurement": "reduction in cell adherence to PEX cells", "setting": "[2]; NL4-3", "value": "59.65%±0.41"}, {"measurement": "HIV adherence to PEX cells with increasing concentrations", "setting": "[2]; NL4-3 and NLAD8, 2 h", "value": "dose-dependent decrease"}, {"measurement": "decrease of cell association to PEX cells", "setting": "[2]; NLAD8, 2 h", "value": "87.98%±0.48"}, {"measurement": "reduction in cell adherence to PEX cells", "setting": "[2]; NLAD8", "value": "59.65%±0.24"}, {"measurement": "% inhibition", "setting": "[3]; listed as CARBAMAZEPINE", "value": 97.09, "unit": "%"}, {"measurement": "% inhibition", "setting": "[3]; listed as Carbamazepine", "value": "~97", "unit": "%"}, {"measurement": "Block HIV in SPR", "setting": "[3]; direct competition SPR", "value": "Yes"}, {"measurement": "Drug RU", "setting": "[3]; drug alone flowed at 1 μM over immobilized WITO HIV", "value": 0.227, "unit": "RU"}, {"measurement": "Pilin + Drug RU", "setting": "[3]; drug and human rI-domain flowed at 1 μM, 1:1", "value": 1.772, "unit": "RU"}, {"measurement": "HIV adherence to CHO-CR3 cells compared with CHO-neo cells", "setting": "[4]; 1 μM, 2 h post-challenge", "value": "not significantly different than that recorded for CHO-neo cells"}, {"measurement": "HIV adherence to CHO-CR3, but not CHO-neo, cells with increasing concentrations", "setting": "[4]; 2 h", "value": "dose-dependent decrease"}]}]}
